Reference: DBAASP
In brackets after ≈: the same amount, converted by molar mass.

Experiments:
Assay in all cases: ≥ marks a high value that may be exact or a test limit, other limits are often not marked, values filed in µg/mL are converted to µM
[1] = test system: Escherichia coli K12 MG1655
[2] = test system: Staphylococcus aureus 68 HER 1049
[3] = test system: Enterococcus faecalis ATCC 29212
Enterococcus faecium = test system: Enterococcus faecium
[4] = test system: Staphylococcus aureus ATCC 25923
[5] = test system: Staphylococcus aureus K35
[6] = test system: Staphylococcus aureus K52
Bacillus subtilis PS832 = test system: Bacillus subtilis PS832
Escherichia coli MG1655 = test system: Escherichia coli MG1655
[7] = test system: Acinetobacter baumannii ATCC 19606
Acinetobacter baumannii = test system: Acinetobacter baumannii
[8] = test system: Bacillus subtilis ATCC 23857
Escherichia coli 780 = test system: Escherichia coli 780
Escherichia coli 850 = test system: Escherichia coli 850
[9] = test system: Escherichia coli ATCC 25922
[10] = test system: Klebsiella pneumoniae ATCC 700603
[11] = test system: Pseudomonas aeruginosa 2760
[12] = test system: Pseudomonas aeruginosa ATCC 27853
[13] = test system: Staphylococcus aureus 725
[14] = test system: Staphylococcus aureus 936

Structure (SMILES): CC[C@H](C)[C@H](NC(=O)[C@H](CCCN=C(N)N)NC(=O)[C@H](CCCN=C(N)N)NC(=O)[C@H](CC(C)C)NC(=O)[C@H](CCCCN)NC(=O)[C@H](CCCCN)NC(=O)[C@H](Cc1c[nH]c2ccccc12)NC(=O)[C@H](CCCCN)NC(=O)[C@H](CCCCN)NC(=O)[C@H](Cc1c[nH]c2ccccc12)NC(=O)[C@@H](N)Cc1ccc(O)cc1)C(=O)N[C@@H](Cc1ccccc1)C(=O)N[C@@H](CCSC)C(=O)N[C@@H](CC(C)C)C(=O)N[C@H](C(=O)O)C(C)C [YWKKWKKLRRIFMLV]
- MIC [1]: 0.954 µM (≈ 2 µg/mL)
- MIC [2]: 3.82 µM (≈ 8 µg/mL)

Structure (SMILES): CC(C)C[C@H](NC(=O)[C@H](CC(C)C)NC(=O)CNC(=O)[C@H](CO)NC(=O)[C@H](CC(C)C)NC(=O)[C@@H](NC(=O)[C@H](CCCN=C(N)N)NC(=O)CNC(=O)[C@H](CC(C)C)NC(=O)[C@H](CC(C)C)NC(=O)[C@@H]1CCCN1C(=O)[C@H](CC(C)C)NC(=O)[C@@H](N)Cc1ccccc1)C(C)C)C(N)=O [FLPLLGRVLSGLL]
- MIC [3]: 10.5 µM (≈ 14.7 µg/mL)
- MIC (Enterococcus faecium): 5.6 µM (≈ 7.82 µg/mL)
- MIC [4]: 5.2 µM (≈ 7.26 µg/mL)
- MIC [5]: 2.8 µM (≈ 3.91 µg/mL)
- MIC [6]: 2.8 µM (≈ 3.91 µg/mL)

Structure (SMILES): CC[C@H](C)[C@H](NC(=O)[C@H](CCCN=C(N)N)NC(=O)[C@H](CCCCN)NC(=O)[C@H](CC(C)C)NC(=O)[C@H](CC(C)C)NC(=O)CNC(=O)[C@H](Cc1cnc[nH]1)NC(=O)[C@H](CCCCN)NC(=O)[C@@H](N)CC(C)C)C(=O)N[C@@H](CCCCN)C(=O)N[C@H](C(=O)N[C@@H](CC(C)C)C(=O)N[C@@H](CC(C)C)C(N)=O)[C@@H](C)O [LKHGLLKRIKTLL]
- MIC (Bacillus subtilis PS832): 8 µM (≈ 12.3 µg/mL)
- MIC (Escherichia coli MG1655): 8 µM (≈ 12.3 µg/mL)

Structure (SMILES): CC[C@H](C)[C@H](NC(=O)[C@H](CCCCN)NC(=O)[C@H](CCCCN)NC(=O)[C@@H]1CCCN1C(=O)[C@H](CC(C)C)NC(=O)[C@H](CCCCN)NC(=O)[C@H](C)NC(=O)[C@H](CC(C)C)NC(=O)[C@@H]1CCCN1C(=O)[C@H](CCCCN)NC(=O)[C@H](CC(C)C)NC(=O)[C@H](CC(N)=O)NC(=O)[C@@H](NC(=O)[C@H](CCCCN)NC(=O)[C@@H]1CCCN1C(=O)[C@H](CC(C)C)NC(=O)[C@H](CC(C)C)NC(=O)[C@H](Cc1ccc(O)cc1)NC(=O)CNC(=O)[C@H](C)N)[C@@H](C)CC)C(=O)N[C@@H](CC(C)C)C(N)=O [AGYLLPKINLKPLAKLPKKIL]
- MIC [7]: 54.9 µM (≈ 128 µg/mL)
- MIC (Acinetobacter baumannii): ≥ 54.9 µM
- MIC [8]: ≥ 54.9 µM
- MIC [3]: > 54.9 µM
- MIC (Escherichia coli 780): ≥ 54.9 µM
- MIC (Escherichia coli 850): ≥ 54.9 µM
- MIC [9]: > 54.9 µM
- MIC [10]: > 54.9 µM
- MIC [11]: ≥ 54.9 µM
- MIC [12]: 54.9 µM (≈ 128 µg/mL)
- MIC [13]: ≥ 54.9 µM
- MIC [14]: ≥ 54.9 µM
- MIC [4]: > 54.9 µM
